Measurements taken from patent US4663311A, “Derivatives of muramyl-peptides and of steroids having macrophage-activating properties” (priority 1983, dated 1987).

Tests used:
B16-BL6 melanoma = experiment: Cytotoxicity against B16-BL6 melanoma cocultured with treated rat alveolar macrophages (125I-deoxyuridine remaining); type: cell-based
Description: The macrophages used are alveolar macrophages of F344 male rats of 200 gm. The macrophages are obtained by washing the lung with 9×5 ml of PBS medium of DULBECCO without calcium or magnesium, of rats anesthesitized with 0.5 ml 5% Nembutal ip (Laboratoires Abbott S.A.) and bled by incision of an artery of the kidney. After centrifugation, they are resuspended in MEM (Minimal Essential Medium) supplemented with 5% of inactivated fetal calf serum (Gibco), glutamine, sodium pyruvate, non-essential amino acids, vitamins and antibiotics (penicillin and streptomycine).
The suspension is then adjusted to 5×10^5 macrophages/ml and redistributed in the proportion of 100 μl per cup in a TITERTEK plastic dish of 96 cups. After incubation for 4 hours, the macrophages have adhered; the non-adherent cells (less than 5%) are removed by aspiration of the medium and two washings with incubation medium. […]
After 96 hours of coculture, the dead cells are removed by 3 washings of each cup with 200 μl of PBS of DULBECCO medium. […] The radioactivity remaining in each cup is counted in a gamma counter (BECKMAN GAMMA 4000). […]
the antitumoral activity of the macrophages is expressed as a cytotoxicity percentage (%CYT): [formula] where T=^125 I-deoxyuridine remaining in the untreated macrophages+tumoral cells coculture; and […]

Mastocytoma P815 = experiment: Growth inhibition of mastocytoma P815 cocultured with treated mouse peritoneal macrophages (tritiated thymidine incorporation); type: cell-based; settings: MTP-chol in liposomes at 2 μg/ml (400 μg liposomes/ml) or 1 μg/ml (200 μg liposomes/ml) vs 50 μg of MDP
Description: I. The microphages used are peritoneal macrophages from eight week old female BDF 1 mice. They have been brought into the peritoneal cavity by i.p. injection 4 days earlier, of 1.5 ml of a sterile inflammatory irritant, thioglycollate medium (marketed by Institut Pasteur Production).
The peritoneal cells are obtained by peritoneal washing with 5 ml of MEM medium (see below) of mice previously killed by cervical dislocation and bled by decapitation.
After centrifugation, they are replaced in suspension in MEM (Minimal Essential Medium, Institut Pasteur Production) supplemented with 5% of inactivated fetal calf serum (gibco), and antibiotics (penicillin+streptomycine).
The macrophages are identified by microscope by their aptitude to endocyte neutral red and counted on an aliquot portion.
The suspension is then adjusted to 2.10^6 macrophages/ml and distributed in the proportion of 250 μl per cup in a Microtest II (NUNCLON) plastic box of 96 cups.
The disk is placed in an oven (HERAEUS) at 37° C. in an air atmosphere+5% water-saturated CO2. […]
The portion of filter corresponding to each cup is cut out and counted in the presence of scintillation liquid (LIPOLUMAC, LUMA) in a scintillation counter (RACKBETA, LKB). […]
The antitumoral activity of the macrophages is expressed as a percentage of growth inhibition: (%IC) [formula] […]

influenza virus A/PR 8 = experiment: Anti-viral activity in experimental influenza infection of Swiss mice; type: in vivo, mouse
Text: The anti-viral activity has been evaluated in an experimental infection system. Swiss mice aged 10 weeks were used. The virus chosen was that of the influenza virus A/PR 8.
At day D-0, the animals received by the intra-nasal route 50 microliters of a viral dilution at 1/10^4.
An anti-viral activity of the tested compound has been found both in preventive and curative experiments (prevention). The administration of one mg of compound by the intra-nasal route one day prior to the viral dilution produced the survival of 67% of the animals.
When the compounds were used at the curative level, the best results were obtained when 0.5 mg of the compound was administered sub-cutaneously one day after the administration of the viral dilution. 71% of the animals survived.

SMILES: CC(=O)N[C@@H]1[C@@H](OC(C)C(=O)N[C@@H](C)C(=O)N[C@H](CCC(=O)N[C@@H](C)C(=O)O[C@H]2CC[C@@]3(C)C(=CC[C@H]4[C@@H]5CC[C@H]([C@H](C)CCCC(C)C)[C@@]5(C)CC[C@@H]43)C2)C(N)=O)[C@H](O)[C@@H](CO)O[C@@H]1O (stereo partly drawn) [MTP-chol, N-acetyl-muramyl-L-alanyl-D-isoglutaminyl-L-alanyl-cholsteryl ester]
- concentration of MTP-chol in the liposomes that significantly activates the macrophages (B16-BL6 melanoma; 40 μg phospholipid/ml): > 0.0017 µg/mL
- concentration of MTP-chol in the liposomes that significantly activates the macrophages (B16-BL6 melanoma; 400 μg phospholipid/ml): more than 0.017 μg/ml
- activation of macrophages compared with MDP (Mastocytoma P815): activates the macrophages significantly more than 50 μg of MDP does
- animals survived (influenza virus A/PR 8; curative: 0.5 mg sub-cutaneously one day after the viral dilution): 71%
- survival of the animals (influenza virus A/PR 8; preventive: one mg intra-nasal one day prior to the viral dilution): 67%
